Source: US20040037774A1, “Carrier for carrying radioactive substances and methods for using the same” (priority 2002, published 2004)

Experiments:
[1] = system: human fibroblast cells (normal cells); experiment: Affinity test on R-phycoerythrin for normal cells (fluorescent microscopy); type: cell-based; details: 10, 20, 40 μg/ml R-phycoerythrin, 24-hour incubation, FIG. 3B-3D
Procedure: (§1) R-phycoerythrin is complete dialyzed with 150 mM sodium phosphate buffer, and then serial dilution is carried out by using MEM medium as diluent to obtain the R-phycoerythrin dilutions of concentrations between 1-100 μg/ml.
(§2) The tumor cells are human neuroblastoma cells, and normal cells for comparison are human fibroblast cells. First, cells are maintained in MEM medium (pH 7.4) supplemented with 10% fetal bovine serum, and incubate at 37° C. and 95% humidity. Replace the MEM medium every two days. When carrying out cell subculture, first remove the medium, and rinse the cells once with sodium phosphate buffer. Then add 0.25% trypsin-EDTA to detach the cells from the surface of petri dish, and stop the reaction of trypsin-EDTA by giving proper amount of foregoing MEM medium, and thus the cell suspension is obtained. Secondly, seed 100,000 to 400,000 cells onto cover slips placed in a 12-well culture plate and incubate at 37° C. and 95% humidity for 16 hours.
(§3) Following is the affinity test on R-phycoerythrin for human fibroblast cells (normal cells) and human neuroblastoma cells (tumor cells). Take the 12-well culture plate with cells growing on cover slips mentioned in step 2. Remove the medium and rinse the cells once with sodium phosphate buffer. Add 1 mL of R-phycoerythrin dilutions mentioned in step 1 to the cells and follow with incubation at 37° C. and 95% humidity. […]

[2] = system: human neuroblastoma cells (tumor cells); experiment: Affinity test on R-phycoerythrin for tumor cells (fluorescent microscopy); type: cell-based; details: 10, 20, 40 μg/ml R-phycoerythrin, 24-hour incubation, FIG. 4B-4D
Procedure: as §1, §2, §3

R-phycoerythrin
fluorescent signal in cells (accumulation of R-phycoerythrin) [1]: no fluorescent signal is observed
strength of fluorescence signal in cells (accumulation of R-phycoerythrin) [2]: in accordance with the increasing amount of R-phycoerythrin
